Data as given in patent US20210070748A1, “INHIBITORS OF BRUTONS TYROSINE KINASE” (Pharmacyclics LLC, priority 2015, published 2021).

Tests used:
EGFR = EGFR (Homo sapiens, UniProt P00533); assay: Inhibition of a panel of kinases, in vitro HotSpot kinase assay: EGFR; assay type: biochemical; details: D-compounds panel data; 1 μM ATP
Experimental: The degree of inhibition of a panel of kinases is determined using the in vitro HotSpot kinase assay (purified enzymes, ^33P-ATP, an appropriate substrate and 1 μM ATP).

JAK3 = biological target: T1, JAK3 (Homo sapiens, UniProt P52333); assay: Inhibition of a panel of kinases, in vitro HotSpot kinase assay: JAK3; assay type: biochemical; details: D-compounds panel data; 1 μM ATP; read-out: IC50 JAK3
T1 sequence (P52333 1-1124): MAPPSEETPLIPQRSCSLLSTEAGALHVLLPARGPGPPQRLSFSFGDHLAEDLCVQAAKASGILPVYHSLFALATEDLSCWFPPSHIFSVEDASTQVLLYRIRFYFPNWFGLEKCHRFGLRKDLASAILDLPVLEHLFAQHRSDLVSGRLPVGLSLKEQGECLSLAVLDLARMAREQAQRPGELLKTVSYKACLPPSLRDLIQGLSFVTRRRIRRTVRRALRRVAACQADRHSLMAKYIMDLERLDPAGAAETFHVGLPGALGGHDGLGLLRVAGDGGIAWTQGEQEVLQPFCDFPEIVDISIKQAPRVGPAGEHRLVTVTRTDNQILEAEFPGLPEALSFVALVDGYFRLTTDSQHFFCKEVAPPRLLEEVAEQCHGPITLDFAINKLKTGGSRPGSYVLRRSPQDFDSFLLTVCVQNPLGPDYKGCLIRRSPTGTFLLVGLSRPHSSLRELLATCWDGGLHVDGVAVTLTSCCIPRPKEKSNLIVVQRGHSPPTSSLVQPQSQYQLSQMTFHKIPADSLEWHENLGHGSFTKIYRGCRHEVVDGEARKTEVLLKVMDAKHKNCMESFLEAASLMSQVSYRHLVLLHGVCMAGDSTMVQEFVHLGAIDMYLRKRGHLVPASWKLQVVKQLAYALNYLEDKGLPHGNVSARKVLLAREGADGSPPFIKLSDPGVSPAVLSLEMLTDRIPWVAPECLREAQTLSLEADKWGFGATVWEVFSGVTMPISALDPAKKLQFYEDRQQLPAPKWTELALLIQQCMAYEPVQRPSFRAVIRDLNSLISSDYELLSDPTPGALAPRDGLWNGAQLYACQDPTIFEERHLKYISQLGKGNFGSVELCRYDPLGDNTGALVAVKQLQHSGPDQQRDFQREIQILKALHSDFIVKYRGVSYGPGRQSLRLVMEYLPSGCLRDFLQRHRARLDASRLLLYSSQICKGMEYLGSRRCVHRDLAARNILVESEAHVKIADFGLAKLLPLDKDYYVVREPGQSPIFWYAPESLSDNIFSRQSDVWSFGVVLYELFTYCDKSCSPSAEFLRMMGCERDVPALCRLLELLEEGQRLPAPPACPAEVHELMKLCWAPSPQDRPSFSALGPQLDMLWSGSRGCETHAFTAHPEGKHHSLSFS

Sequence of EGFR (P00533 25-1210): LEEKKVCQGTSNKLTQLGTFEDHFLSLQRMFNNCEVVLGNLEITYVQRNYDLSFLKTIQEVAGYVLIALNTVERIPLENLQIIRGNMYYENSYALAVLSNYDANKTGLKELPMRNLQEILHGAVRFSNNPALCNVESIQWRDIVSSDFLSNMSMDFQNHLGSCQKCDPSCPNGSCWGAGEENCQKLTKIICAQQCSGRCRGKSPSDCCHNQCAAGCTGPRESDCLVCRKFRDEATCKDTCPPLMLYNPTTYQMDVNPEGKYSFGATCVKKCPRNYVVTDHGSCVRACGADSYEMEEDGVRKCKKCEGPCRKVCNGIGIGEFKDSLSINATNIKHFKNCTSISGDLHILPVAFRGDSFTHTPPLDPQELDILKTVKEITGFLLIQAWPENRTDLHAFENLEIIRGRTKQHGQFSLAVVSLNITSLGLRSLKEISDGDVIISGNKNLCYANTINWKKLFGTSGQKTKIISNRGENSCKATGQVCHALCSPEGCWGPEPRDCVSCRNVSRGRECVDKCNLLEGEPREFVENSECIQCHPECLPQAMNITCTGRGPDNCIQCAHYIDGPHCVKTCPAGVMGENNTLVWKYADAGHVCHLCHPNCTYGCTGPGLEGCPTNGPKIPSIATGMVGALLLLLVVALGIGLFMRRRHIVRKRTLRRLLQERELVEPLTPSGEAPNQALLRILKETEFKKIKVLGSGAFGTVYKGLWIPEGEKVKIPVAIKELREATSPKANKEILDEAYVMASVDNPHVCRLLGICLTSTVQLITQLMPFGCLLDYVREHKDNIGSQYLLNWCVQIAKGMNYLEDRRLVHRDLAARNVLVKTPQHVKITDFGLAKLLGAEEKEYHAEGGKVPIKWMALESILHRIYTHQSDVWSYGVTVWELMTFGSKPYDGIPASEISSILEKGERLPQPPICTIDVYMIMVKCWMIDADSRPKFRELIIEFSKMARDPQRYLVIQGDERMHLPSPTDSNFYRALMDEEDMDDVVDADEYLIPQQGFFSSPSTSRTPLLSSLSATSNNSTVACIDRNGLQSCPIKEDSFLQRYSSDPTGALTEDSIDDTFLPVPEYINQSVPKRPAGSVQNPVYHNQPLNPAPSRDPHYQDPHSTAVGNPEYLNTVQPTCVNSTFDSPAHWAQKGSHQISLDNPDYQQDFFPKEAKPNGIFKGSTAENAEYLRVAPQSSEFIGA

SMILES | IC50 (EGFR) | IC50 (JAK3)
C[C@@H]1[C@H](NC(=O)c2ccc(C(C)(C)O)nc2)CCCN1c1cnc(C(N)=O)c(Nc2cnn(C)c2)n1 [Example D-40, 5-[(2R,3R)-3-[6-(2-hydroxypropan-2-yl)pyridine-3-amido]-2-methylpiperidin-1-yl]-3-[(1-methyl-1H-pyrazol-4-yl)amino]pyrazine-2-carboxamide] | 100 to 1000 nM | 100 to 1000 nM
C[C@@H]1[C@H](NC(=O)c2ccc(C(C)(C)O)nc2)CCCN1c1nnc(C(N)=O)c(Nc2cnn(C)c2)n1 [Example D-41, 3-[(2R,3R)-3-[6-(2-hydroxypropan-2-yl)pyridine-3-amido]-2-methylpiperidin-1-yl]-5-[(1-methyl-1H-pyrazol-4-yl)amino]-1,2,4-triazine-6-carboxamide] | 1000 to 10000 nM | 100 to 1000 nM
C[C@@H]1[C@H](NC(=O)c2ccc(C3CC3)cc2)CCCN1c1cnc(C(N)=O)c(Nc2ccc(OC(F)(F)F)cc2)n1 [Example D-42, 5-[(2R,3R)-3-(4-cyclopropylbenzamido)-2-methylpiperidin-1-yl]-3-{[4-(trifluoromethoxy)phenyl]amino}pyrazine-2-carboxamide] | > 10000 nM | > 10000 nM
Cn1cc(Nc2nc(N3CCC[C@@H]4[C@H]3CCN4C(=O)c3ccc(C4CC4)cc3)cnc2C(N)=O)cn1 [Example D-44, 5-[(3aR,7aR)-1-(4-cyclopropylbenzoyl)-octahydro-1H-pyrrolo[3,2-b]pyridin-4-yl]-3-[(1-methyl-1H-pyrazol-4-yl)amino]pyrazine-2-carboxamide] | 100 to 1000 nM | 1000 to 10000 nM
Cn1cc(Nc2nc(N3CCC[C@H]4[C@@H]3CCN4C(=O)c3ccc(C4CC4)cc3)cnc2C(N)=O)cn1 [Example D-45, 5-[(3aS,7aS)-1-(4-cyclopropylbenzoyl)-octahydro-1H-pyrrolo[3,2-b]pyridin-4-yl]-3-[(1-methyl-1H-pyrazol-4-yl)amino]pyrazine-2-carboxamide] | > 10000 nM | 1000 to 10000 nM
Cn1cc(Nc2nc(N3CCC[C@@H]4[C@H]3CCCN4C(=O)c3ccc(C4CC4)cc3)cnc2C(N)=O)cn1 [Example D-46, 5-I[(4aR,8aR)-5-(4-cyclopropylbenzoyl)-decahydro-1,5-naphthyridin-1-yl]-3-[(1-methyl-1H-pyrazol-4-yl)amino]pyrazine-2-carboxamide] | 100 to 1000 nM | 1000 to 10000 nM
Cn1cc(Nc2nc(N3CCC[C@H]4[C@@H]3CCCN4C(=O)c3ccc(C4CC4)cc3)cnc2C(N)=O)cn1 [Example D-47, 5-[(4aS,8aS)-5-(4-cyclopropylbenzoyl)-decahydro-1,5-naphthyridin-1-yl]-3-[(1-methyl-1H-pyrazol-4-yl)amino]pyrazine-2-carboxamide] | > 10000 nM | > 10000 nM
C[C@@H]1[C@H](NC(=O)c2ccc(C3CC3)nc2)CCCN1c1cnc(C(N)=O)c(Nc2ccc(OC3CCC(F)(F)CC3)cc2)n1 [Example D-48, 5-[(2R,3R)-3-(6-cyclopropylpyridine-3-amido)-2-methylpiperidin-1-yl]-3-({4-[(4,4-difluorocyclohexyl)oxy]phenyl}amino)pyrazine-2-carboxamide] | > 10000 nM | 1000 to 10000 nM
C[C@@H]1[C@H](NC(=O)c2ccc(C(C)(C)N)cc2)CCCN1c1cnc(C(N)=O)c(Nc2cnn(C)c2)n1 [Example D-51, 5-[(2R,3R)-3-[4-(2-aminopropan-2-yl)benzamido]-2-methylpiperidin-1-yl]-3-[(1-methyl-1H-pyrazol-4-yl)amino]pyrazine-2-carboxamide] | 100 to 1000 nM | 100 to 1000 nM
C[C@@H]1[C@H](NC(=O)N(C)C)CCCN1c1cnc(C(N)=O)c(Nc2ccc(N3CCN(C)CC3)cc2F)n1 [Example D-52, 5-[(2R,3R)-3-[(dimethylcarbamoyl)amino]-2-methylpiperidin-1-yl]-3-{[2-fluoro-4-(4-methylpiperazin-1-yl)phenyl]amino}pyrazine-2-carboxamide] | 1000 to 10000 nM | > 10000 nM
